“And” between values parts separate entries of the source, which are not always exact repeats. Identical values can stand only once. The source made the active and inactive calls. The rule behind the calls is not given here.
System: rodent lifetime carcinogenesis bioassay, tumor incidence TD50
Experiment: carcinogenic potency in animals, long-term in vivo studies, CPDB compilation (AID 1745844)

## CC1CC(C)(C)CC(OOC(C)(C)C)(OOC(C)(C)C)C1 (stereo not given)
mouse, strain B6C3F1, females, in feed, site: any site (literature study), lesion: malignant tumor, dosed 78 weeks, study length 83 weeks
  TD50: 9310 mg/kg/day (inactive)
mouse, strain B6C3F1, females, in feed, site: any site (literature study), lesion: one or several types, types not named, dosed 78 weeks, study length 83 weeks
  TD50: 4230 mg/kg/day (inactive)
mouse, strain B6C3F1, females, in feed, site: liver, lesion: one or several types, types not named, dosed 78 weeks, study length 83 weeks
  carcinogen call: negative (inactive)
mouse, strain B6C3F1, females, in feed, site: lung, lesion: alveolar/bronchiolar adenoma, dosed 78 weeks, study length 83 weeks
  carcinogen call: negative (inactive)
mouse, strain B6C3F1, females, in feed, site: lung, lesion: alveolar/bronchiolar carcinoma, dosed 78 weeks, study length 83 weeks
  TD50: 19900 mg/kg/day (inactive)
mouse, strain B6C3F1, males, in feed, site: any site (literature study), lesion: malignant tumor, dosed 78 weeks, study length 83 weeks
  carcinogen call: negative (inactive)
mouse, strain B6C3F1, males, in feed, site: any site (literature study), lesion: one or several types, types not named, dosed 78 weeks, study length 83 weeks
  TD50: 4980 mg/kg/day (inactive)
mouse, strain B6C3F1, males, in feed, site: liver, lesion: hepatocellular adenoma, dosed 78 weeks, study length 83 weeks
  TD50: 1490 mg/kg/day (inactive)
mouse, strain B6C3F1, males, in feed, site: liver, lesion: hepatocellular carcinoma, dosed 78 weeks, study length 83 weeks
  carcinogen call: negative (inactive)
mouse, strain B6C3F1, males, in feed, site: lung, lesion: alveolar/bronchiolar adenoma, dosed 78 weeks, study length 83 weeks
  TD50: 7.6e+09 mg/kg/day (inactive)
mouse, strain B6C3F1, males, in feed, site: lung, lesion: alveolar/bronchiolar carcinoma, dosed 78 weeks, study length 83 weeks
  carcinogen call: negative (inactive)

## C[C@@H]1CCC[C@H](C)N1CCCC(O)(c1ccccc1)c1ccccn1 (stereo not given in full)
mouse, strain B6C3F1, females, in feed, site: all sites, lesion: lymphoma, dosed 104 weeks, study length 104 weeks
  TD50: 94.6 mg/kg/day (inactive)
mouse, strain B6C3F1, females, in feed, site: any site (literature study), lesion: several types, types named in the paper, dosed 104 weeks, study length 104 weeks
  carcinogen call: negative (inactive)
mouse, strain B6C3F1, females, in feed, site: liver, lesion: hepatocellular adenoma, dosed 104 weeks, study length 104 weeks
  TD50: 1560 mg/kg/day (inactive)
mouse, strain B6C3F1, females, in feed, site: liver, lesion: hepatocellular carcinoma, dosed 104 weeks, study length 104 weeks
  TD50: 978 mg/kg/day (inactive)
mouse, strain B6C3F1, females, in feed, site: lung, lesion: adenoma, dosed 104 weeks, study length 104 weeks
  TD50: 1980 mg/kg/day (inactive)
mouse, strain B6C3F1, females, in feed, site: lung, lesion: carcinoma, dosed 104 weeks, study length 104 weeks
  carcinogen call: negative (inactive)
mouse, strain B6C3F1, males, in feed, site: any site (literature study), lesion: several types, types named in the paper, dosed 104 weeks, study length 104 weeks
  carcinogen call: negative (inactive)
mouse, strain B6C3F1, males, in feed, site: liver, lesion: hepatocellular adenoma, dosed 104 weeks, study length 104 weeks
  carcinogen call: negative (inactive)
mouse, strain B6C3F1, males, in feed, site: liver, lesion: hepatocellular carcinoma, dosed 104 weeks, study length 104 weeks
  carcinogen call: negative (inactive)
mouse, strain B6C3F1, males, in feed, site: lung, lesion: adenoma, dosed 104 weeks, study length 104 weeks
  TD50: 947 mg/kg/day (inactive)
mouse, strain B6C3F1, males, in feed, site: lung, lesion: carcinoma, dosed 104 weeks, study length 104 weeks
  TD50: 4040 mg/kg/day (inactive)
rat, strain Wistar, females, in feed, site: any site (literature study), lesion: several types, types named in the paper, dosed 104 weeks, study length 104 weeks
  TD50: 440 mg/kg/day (inactive)
rat, strain Wistar, females, in feed, site: liver, lesion: one or several types, types not named, dosed 104 weeks, study length 104 weeks
  carcinogen call: negative (inactive)
rat, strain Wistar, females, in feed, site: pituitary gland, lesion: adenoma, dosed 104 weeks, study length 104 weeks
  TD50: 15.9 mg/kg/day (inactive)
rat, strain Wistar, males, in feed, site: adrenal gland, lesion: cortical adenoma, dosed 104 weeks, study length 104 weeks
  TD50: 104 mg/kg/day (inactive)
rat, strain Wistar, males, in feed, site: any site (literature study), lesion: several types, types named in the paper, dosed 104 weeks, study length 104 weeks
  carcinogen call: negative (inactive)
rat, strain Wistar, males, in feed, site: liver, lesion: one or several types, types not named, dosed 104 weeks, study length 104 weeks
  carcinogen call: negative (inactive)

## c1ccc2cc(Nc3ccc(Nc4ccc5ccccc5c4)cc3)ccc2c1
mouse, strain B6AKF1, females, oral dosing, site: any site (literature study), lesion: several types, types named in the paper, dosed 76 weeks, study length 76 weeks
  TD50: 63.8 mg/kg/day (inactive)
mouse, strain B6AKF1, females, oral dosing, site: liver, lesion: hepatoma, dosed 76 weeks, study length 76 weeks
  carcinogen call: negative (inactive)
mouse, strain B6AKF1, females, oral dosing, site: lung, lesion: adenoma, dosed 76 weeks, study length 76 weeks
  TD50: 221 mg/kg/day (inactive)
mouse, strain B6AKF1, males, oral dosing, site: any site (literature study), lesion: several types, types named in the paper, dosed 76 weeks, study length 76 weeks
  carcinogen call: negative (inactive)
mouse, strain B6AKF1, males, oral dosing, site: liver, lesion: hepatoma, dosed 76 weeks, study length 76 weeks
  carcinogen call: negative (inactive)
mouse, strain B6AKF1, males, oral dosing, site: lung, lesion: adenoma, dosed 76 weeks, study length 76 weeks
  carcinogen call: negative (inactive)
mouse, strain B6C3F1, females, oral dosing, site: any site (literature study), lesion: several types, types named in the paper, dosed 76 weeks, study length 76 weeks
  TD50: 235 mg/kg/day (inactive)
mouse, strain B6C3F1, females, oral dosing, site: liver, lesion: hepatoma, dosed 76 weeks, study length 76 weeks
  carcinogen call: negative (inactive)
mouse, strain B6C3F1, females, oral dosing, site: lung, lesion: several types, types named in the paper, dosed 76 weeks, study length 76 weeks
  carcinogen call: negative (inactive)
mouse, strain B6C3F1, males, oral dosing, site: any site (literature study), lesion: several types, types named in the paper, dosed 76 weeks, study length 76 weeks
  TD50: 25.9 mg/kg/day (inactive)
mouse, strain B6C3F1, males, oral dosing, site: liver, lesion: hepatoma, dosed 76 weeks, study length 76 weeks
  TD50: 59.4 mg/kg/day (inactive)
mouse, strain B6C3F1, males, oral dosing, site: lung, lesion: adenoma, dosed 76 weeks, study length 76 weeks
  TD50: 192 mg/kg/day (inactive)

## ClCOCc1ccc(COCCl)cc1
mouse, strain Ha/ICR, females, i.p., site: abdomen, lesion: sarcoma, dosed 77 weeks, study length 77 weeks
  TD50: 3.11 mg/kg/day

## O=C(O)c1ccccc1
mouse, strain Swiss albino, females, in drinking water, site: liver, lesion: one or several types, types not named, dosed 134 weeks, study length 134 weeks
  carcinogen call: negative (inactive)
mouse, strain Swiss albino, females, in drinking water, site: lung, lesion: one or several types, types not named, dosed 134 weeks, study length 134 weeks
  carcinogen call: negative (inactive)
mouse, strain Swiss albino, males, in drinking water, site: liver, lesion: hepatoma, dosed 113 weeks, study length 113 weeks
  TD50: 133000 mg/kg/day (inactive)
mouse, strain Swiss albino, males, in drinking water, site: lung, lesion: one or several types, types not named, dosed 113 weeks, study length 113 weeks
  carcinogen call: negative (inactive)
rat, strain Fischer 344, females, in feed, site: any site (literature study), lesion: malignant tumor, dosed 104 weeks, study length 108 weeks
  TD50: 104000 mg/kg/day (inactive)
rat, strain Fischer 344, females, in feed, site: any site (literature study), lesion: several types, types named in the paper, dosed 104 weeks, study length 108 weeks
  TD50: 24900 mg/kg/day (inactive)
rat, strain Fischer 344, males, in feed, site: any site (literature study), lesion: malignant tumor, dosed 104 weeks, study length 108 weeks
  carcinogen call: negative (inactive)
rat, strain Fischer 344, males, in feed, site: any site (literature study), lesion: several types, types named in the paper, dosed 104 weeks, study length 108 weeks
  carcinogen call: negative (inactive)

## CCN(CC(F)(F)F)N=O
rat, strain Sprague-Dawley, males, by gavage, site: esophagus, lesion: papillary carcinoma, dosed 88 weeks, study length 88 weeks
  TD50: 2.52 mg/kg/day
rat, strain Sprague-Dawley, males, by gavage, site: nasal cavity, lesion: several types, types named in the paper, dosed 88 weeks, study length 88 weeks
  TD50: 7.34 mg/kg/day

## CC(=O)Nc1nc(-c2ccc([N+](=O)[O-])o2)cs1
hamster, strain Syrian Golden, males, in feed, site: forestomach, lesion: squamous-cell papilloma, dosed 48 weeks, study length 70 weeks
  TD50: 68.1 mg/kg/day
hamster, strain Syrian Golden, males, in feed, site: urinary bladder, lesion: several types, types named in the paper, dosed 48 weeks, study length 70 weeks
  TD50: 8.91 mg/kg/day
hamster, strain Syrian Golden, males, in feed, site: urinary bladder, lesion: squamous-cell carcinoma, dosed 48 weeks, study length 70 weeks
  TD50: 60.2 mg/kg/day
rat, strain Sprague-Dawley, females, in feed, site: kidney/pelvis, lesion: transitional-cell carcinoma, dosed 46 weeks, study length 66 weeks
  TD50: 316 mg/kg/day and 660 mg/kg/day
rat, strain Sprague-Dawley, females, in feed, site: mammary gland, lesion: adenocarcinoma, dosed 46 weeks, study length 66 weeks
  TD50: 36.2 mg/kg/day
rat, strain Sprague-Dawley, females, in feed, site: mammary gland, lesion: fibroadenoma, dosed 46 weeks, study length 66 weeks
  TD50: 56.9 mg/kg/day and 25 mg/kg/day and 30.2 mg/kg/day
rat, strain Sprague-Dawley, females, in feed, site: mammary tissue, wider than the gland, lesion: several types, types named in the paper, dosed 46 weeks, study length 66 weeks
  TD50: 10.5 mg/kg/day

## c1ccc2ccccc2c1
mouse, strain B6C3F1, females, inhaled, site: any site (literature study), lesion: several types, types named in the paper, dosed 103 weeks, study length 104 weeks
  TD50: 128 mg/kg/day
mouse, strain B6C3F1, females, inhaled, site: lung, lesion: alveolar/bronchiolar adenoma + alveolar/bronchiolar carcinoma, dosed 103 weeks, study length 104 weeks
  TD50: 163 mg/kg/day
mouse, strain B6C3F1, females, inhaled, site: lung, lesion: alveolar/bronchiolar adenoma, dosed 103 weeks, study length 104 weeks
  TD50: 171 mg/kg/day
mouse, strain B6C3F1, females, inhaled, site: lung, lesion: alveolar/bronchiolar carcinoma, dosed 103 weeks, study length 104 weeks
  TD50: 4020 mg/kg/day
mouse, strain B6C3F1, males, inhaled, site: any site (literature study), lesion: several types, types named in the paper, dosed 103 weeks, study length 104 weeks
  carcinogen call: negative (inactive)
rat, strain Fischer 344, females, inhaled, site: nasal cavity, olfactory epithelium + nasal cavity, respiratory epithelium, lesion: neuroblastoma + adenoma, dosed 105 weeks, study length 105 weeks
  TD50: 37.3 mg/kg/day
rat, strain Fischer 344, females, inhaled, site: nasal cavity, olfactory epithelium, lesion: neuroblastoma, dosed 105 weeks, study length 105 weeks
  TD50: 52.9 mg/kg/day
rat, strain Fischer 344, females, inhaled, site: nasal cavity, respiratory epithelium, lesion: adenoma, dosed 105 weeks, study length 105 weeks
  TD50: 121 mg/kg/day
rat, strain Fischer 344, males, inhaled, site: any site (literature study), lesion: several types, types named in the paper, dosed 104 weeks, study length 104 weeks
  TD50: 27.5 mg/kg/day
rat, strain Fischer 344, males, inhaled, site: liver, lesion: hepatocellular adenoma + hepatoblastoma + hepatocellular carcinoma, dosed 104 weeks, study length 104 weeks
  TD50: 171 mg/kg/day
rat, strain Fischer 344, males, inhaled, site: mammary gland, lesion: fibroadenoma, dosed 104 weeks, study length 104 weeks
  TD50: 133 mg/kg/day
rat, strain Fischer 344, males, inhaled, site: nasal cavity, olfactory epithelium + nasal cavity, respiratory epithelium, lesion: neuroblastoma + adenoma, dosed 104 weeks, study length 104 weeks
  TD50: 12.3 mg/kg/day
rat, strain Fischer 344, males, inhaled, site: nasal cavity, olfactory epithelium, lesion: neuroblastoma, dosed 104 weeks, study length 104 weeks
  TD50: 88 mg/kg/day
rat, strain Fischer 344, males, inhaled, site: nasal cavity, respiratory epithelium, lesion: adenoma, dosed 104 weeks, study length 104 weeks
  TD50: 14 mg/kg/day

## CC(=O)O[C@]1(C(C)=O)CC[C@H]2[C@@H]3C=C(Cl)C4=CC(=O)CC[C@]4(C)[C@H]3CC[C@@]21C (tested in a mixture with another compound)
mouse, strain (C3H x RIII)F1 (MTV+), males, in feed, site: mammary tissue, wider than the gland, lesion: one or several types, types not named, dosed 104 weeks, study length 104 weeks
  TD50: 1.76 mg/kg/day
mouse, strain C3H (MTV+), females, in feed, site: mammary tissue, wider than the gland, lesion: one or several types, types not named, dosed 104 weeks, study length 104 weeks
  TD50: 5.98 mg/kg/day
mouse, strain RIII (MTV+), females, in feed, site: mammary tissue, wider than the gland, lesion: one or several types, types not named, dosed 104 weeks, study length 104 weeks
  TD50: 2.12 mg/kg/day

— PubChem BioAssay AID1745844 (Carcinogenic Potency Database (CPDB), 2022)
